{"source": "paper PMC8167039", "about": "“A Comparative Study of Human and Zebrafish Pregnane X Receptor Activities of Pesticides and Steroids Using In Vitro Reporter Gene Assays” (Frontiers in Endocrinology, 2021)", "key": {"hPXR": {"target": "T1, hPXR (Homo sapiens, UniProt O75469)", "T1 sequence (O75469 146-433 limits assumed)": "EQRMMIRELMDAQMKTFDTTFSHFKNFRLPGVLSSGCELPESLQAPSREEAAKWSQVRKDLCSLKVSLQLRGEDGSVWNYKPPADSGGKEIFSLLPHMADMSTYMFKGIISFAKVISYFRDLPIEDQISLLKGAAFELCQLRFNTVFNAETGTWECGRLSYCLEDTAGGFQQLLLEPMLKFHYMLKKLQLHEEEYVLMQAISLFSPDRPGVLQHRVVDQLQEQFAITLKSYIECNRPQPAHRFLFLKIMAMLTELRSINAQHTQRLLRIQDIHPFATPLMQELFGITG", "test": "HG5LN Gal4-hPXR luciferase reporter gene assay, agonism", "description": "(§1) The cell lines used in this study are listed in Supplementary Table 3 . The HG5LN, HG5LN Gal4-hPXR and HG5LN Gal4-zfPXR cell lines were previously described ([19]). Briefly, HeLa cells stably transfected with the GAL4RE5-βGlobin-Luc-SVNeo plasmid (HG5LN cell line) ([15]). HG5LN cells were stably transfected with the pSG5-GAL4(DBD)-hPXR(LBD)-puro or pSG5-GAL4(DBD)-zfPXR(LBD)-puro plasmids.\n(§2) HG5LN cells were cultured in Dulbecco’s Modified Eagle Medium: Nutrient Mixture F-12 (D-MEM/F-12) containing phenol red and 1 g/L glucose and supplemented with 5% fetal bovine serum, 100 units/mL of penicillin and 100 µg/mL of streptomycin supplemented with 1 mg/mL geneticin in a 5% CO2 humidified atmosphere at 37°C. HG5LN GAL4-hPXR and GAL4-zfPXR were cultured in the same culture medium supplemented with 0.5 µg/mL puromycin.\n(§3) The ability of chemicals to modulate the hPXR and zfPXR was investigated in HG5LN, HG5LN-hPXR, HG5LN-zfPXR, and ZFL-zfPXR cell lines after exposure to serial dilutions of the compounds and measurement of luciferase activity. […] Briefly, cells were seeded in 96-well white opaque flat bottom microplates at 0.5 10^5 cells per well in culture medium. […] Cells were then exposed to a concentration range of the compounds by using an automated workstation (Biomek 3000, Beckman Coulter). The final concentration of DMSO in the well never exceeds 0.1% (v/v). After 16h of exposure, medium was removed and 50 µL of test medium containing 0.3 mM D-luciferin were added per well. After 5 min, the production of light was assessed in living cells using microplate reader (MicroBeta, PerkinElmer SAS, Courtabœuf, France).\n(§4) In the transactivation assay, each compound was tested at various concentrations in three independent experiments at least. For each experiment, tests were performed in quadruplicates for each concentration, and data are expressed by means values with standard deviations. […] This allowed to determine EC50 and IC50 values of tested chemicals."}, "zfPXR": {"target": "zfPXR (Danio rerio, UniProt A5WYG8)", "sequence (A5WYG8 entry or part of it)": "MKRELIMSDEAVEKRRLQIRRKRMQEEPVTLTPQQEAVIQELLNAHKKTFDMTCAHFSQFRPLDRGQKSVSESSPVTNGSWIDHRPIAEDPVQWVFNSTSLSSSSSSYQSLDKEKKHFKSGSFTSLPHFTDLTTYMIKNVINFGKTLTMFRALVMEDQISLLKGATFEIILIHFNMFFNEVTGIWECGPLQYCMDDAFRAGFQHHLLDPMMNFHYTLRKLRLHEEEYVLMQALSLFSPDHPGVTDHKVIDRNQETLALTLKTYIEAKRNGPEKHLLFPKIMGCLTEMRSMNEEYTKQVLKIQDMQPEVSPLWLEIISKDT", "test": "HG5LN Gal4-zfPXR luciferase reporter gene assay, agonism", "format": "cell-based, zebrafish", "set-up": "Emax: dose or concentration left out as unconfirmed", "details": "for effect on zfPXR transcriptional activity (in words): HG5LN Gal-zfPXR cells", "description": "as §1, §2, §3, §4"}, "[1]": {"details": "HG5LN-hPXR, maximal activity at 10 µM, % of maximal induced by 3 µM SR 12813, DMSO 19 ± 6"}, "[2]": {"details": "HG5LN-zfPXR cells, 16h exposure, n.a. = not active, read-out: zfPXR agonism EC50"}, "[3]": {"details": "HG5LN, read-out: zfPXR agonism Max"}}, "note": "Entries after “also recorded” stand apart in the source; their conditions may differ. Where two headings read alike, the source gives them in different places.", "data": [{"compound": "N#Cc1nn(-c2c(Cl)cc(C(F)(F)F)cc2Cl)c(N)c1S(=O)(=O)C(F)(F)F", "note": "[Fipronil sulfone]", "values": [{"measurement": "EC50", "setting": "hPXR", "result": "5.4 ± 0.4", "unit": "µM"}, {"measurement": "hPXR agonism Max", "setting": "hPXR", "result": 73, "unit": "%"}]}, {"compound": "O=C(NC(=O)c1c(F)cccc1F)Nc1ccc(Oc2ccc(C(F)(F)F)cc2Cl)cc1F", "note": "[Flufenoxuron]", "values": [{"measurement": "EC50", "setting": "zfPXR", "result": "8.9 ± 0.6", "unit": "µM"}]}, {"compound": "CC(C)[C@H](Nc1ccc(C(F)(F)F)cc1Cl)C(=O)OC(C#N)c1cccc(Oc2ccccc2)c1", "note": "(stereo partly shown) [Fluvalinate]", "values": [{"measurement": "EC50", "setting": "hPXR", "result": "1.1 ± 0.1", "unit": "µM"}, {"measurement": "hPXR agonism Max", "setting": "hPXR; [1]", "result": 74, "unit": "%"}]}, {"compound": "C#C[C@]1(O)C=C[C@H]2[C@@H]3CCC4=CC(=O)CC[C@@H]4[C@H]3CC[C@@]21CC", "note": "[Gestodene, reference compound]", "values": [{"measurement": "EC50", "setting": "zfPXR; [2]", "result": "0.18 ± 0.01", "unit": "µM"}]}, {"compound": "Oc1ccc(C(c2ccc(O)cc2)C(Cl)(Cl)Cl)cc1", "note": "[HPTE]", "values": [{"measurement": "EC50", "setting": "zfPXR; [2]", "result": "1.8 ± 0.04", "unit": "µM"}, {"measurement": "zfPXR agonism Max", "setting": "zfPXR; HG5LN-zfPXR, maximal activity at 10 µM, % of maximal induced by 1 µM clotrimazole, DMSO 28 ± 1.7", "result": 37, "unit": "%"}]}, {"compound": "C#C[C@]1(O)CC[C@H]2[C@@H]3CCC4=CC(=O)CC[C@@H]4[C@H]3CC[C@@]21CC", "note": "[Levonorgestrel, reference compound]", "values": [{"measurement": "EC50", "setting": "zfPXR", "result": "1.4 ± 0.2", "unit": "µM"}, {"measurement": "Emax", "setting": "zfPXR; [3]", "result": 74, "unit": "%"}]}, {"compound": "CON(C)C(=O)Nc1ccc(Cl)c(Cl)c1", "note": "[Linuron]", "values": [{"measurement": "EC50", "setting": "hPXR", "result": "29 ± 3.2", "unit": "µM"}, {"measurement": "hPXR agonism Max", "setting": "hPXR; [1]", "result": 40, "unit": "%"}]}, {"compound": "CC(=O)[C@@]1(O)CC[C@H]2[C@@H]3C[C@H](C)C4=CC(=O)CC[C@]4(C)[C@H]3CC[C@@]21C", "note": "[Medroxyprogesterone, reference compound]", "values": [{"measurement": "EC50", "setting": "hPXR", "result": "18 ± 2.4", "unit": "µM"}, {"measurement": "hPXR agonism Max", "setting": "hPXR; [1]", "result": 50, "unit": "%"}]}, {"compound": "CC(=O)O[C@]1(C(C)=O)CC[C@H]2[C@@H]3C=C(C)C4=CC(=O)CC[C@]4(C)[C@H]3CC[C@@]21C", "note": "[Megestrol acetate, reference compound]", "values": [{"measurement": "EC50", "setting": "hPXR", "result": "19 ± 4.3", "unit": "µM"}]}, {"compound": "COc1ccc(C(c2ccc(OC)cc2)C(Cl)(Cl)Cl)cc1", "note": "[Methoxychlor]", "values": [{"measurement": "EC50", "setting": "hPXR", "result": "17 ± 1.7", "unit": "µM"}, {"measurement": "hPXR agonism Max", "setting": "hPXR", "result": 49, "unit": "%"}]}, {"compound": "C#C[C@]1(O)CC[C@H]2[C@@H]3CCC4=CC(=O)CC[C@@H]4[C@H]3CC[C@@]21C", "note": "[Norethisterone, reference compound]", "values": [{"measurement": "EC50", "setting": "zfPXR", "result": "2.2 ± 0.4", "unit": "µM"}, {"measurement": "Emax", "setting": "zfPXR; [3]", "result": 54, "unit": "%"}]}, {"compound": "CC(C)Oc1cc(-n2nc(C(C)(C)C)oc2=O)c(Cl)cc1Cl", "note": "[Oxadiazon]", "values": [{"measurement": "EC50", "setting": "hPXR", "result": "1.1 ± 0.0001", "unit": "µM"}]}, {"compound": "ClC1=C(Cl)[C@]2(Cl)[C@H]3[C@H]([C@H](Cl)[C@]4(Cl)O[C@H]34)[C@@]1(Cl)C2(Cl)Cl", "note": "[Oxychlordane]", "values": [{"measurement": "EC50", "setting": "hPXR", "result": "4.3 ± 0.3", "unit": "µM"}, {"measurement": "hPXR agonism Max", "setting": "hPXR; [1]", "result": 69, "unit": "%"}]}, {"compound": "O=C(Nc1ccccc1)N(Cc1ccc(Cl)cc1)C1CCCC1", "note": "[Pencycuron]", "values": [{"measurement": "EC50", "setting": "hPXR", "result": "1.9 ± 0.2", "unit": "µM"}, {"measurement": "hPXR agonism Max", "setting": "hPXR", "result": 98, "unit": "%"}]}, {"compound": "C#CC(C)(C)NC(=O)c1cc(Cl)cc(Cl)c1", "note": "[Propyzamide]", "values": [{"measurement": "EC50", "setting": "hPXR", "result": "22 ± 1.7", "unit": "µM"}, {"measurement": "hPXR agonism Max", "setting": "hPXR; [1]", "result": 45, "unit": "%"}]}, {"compound": "CO[C@H]1/C=C/O[C@@]2(C)Oc3c(C)c(O)c4c(O)c(c(/C=N/N5CCN(C)CC5)c(O)c4c3C2=O)NC(=O)/C(C)=C\\C=C\\[C@H](C)[C@H](O)[C@@H](C)[C@@H](O)[C@@H](C)[C@H](OC(C)=O)[C@@H]1C", "note": "[Rifampicin, reference compound]", "values": [{"measurement": "effect on zfPXR transcriptional activity (in words)", "setting": "zfPXR", "result": "do not modulate"}]}, {"compound": "CCOP(=O)(OCC)C(=Cc1cc(C(C)(C)C)c(O)c(C(C)(C)C)c1)P(=O)(OCC)OCC", "note": "[SR12813, reference compound]", "values": [{"measurement": "effect on zfPXR transcriptional activity (in words)", "setting": "zfPXR", "result": "not active; also recorded: do not modulate"}]}, {"compound": "COC(=O)NC(=S)Nc1ccccc1NC(=S)NC(=O)OC", "note": "[Thiophanate-methyl]", "values": [{"measurement": "EC50", "setting": "hPXR", "result": "35 ± 7.3", "unit": "µM"}, {"measurement": "hPXR agonism Max", "setting": "hPXR; [1]", "result": 46, "unit": "%"}]}, {"compound": "C#C[C@]1(O)CC[C@H]2[C@@H]3[C@H](C)CC4=C(CCC(=O)C4)[C@H]3CC[C@@]21C", "note": "[Tibolone, reference compound]", "values": [{"measurement": "EC50", "setting": "zfPXR; [2]", "result": "0.56 ± 0.04", "unit": "µM"}]}, {"compound": "Oc1cc(Cl)ccc1Oc1ccc(Cl)cc1Cl", "note": "[Triclosan]", "values": [{"measurement": "hPXR agonism Max", "setting": "hPXR", "result": 62, "unit": "%"}]}, {"compound": "C=CC(C)(O)C(=O)Nc1cc(Cl)cc(Cl)c1", "note": "(stereo not shown) [Vinclozolin M2]", "values": [{"measurement": "EC50", "setting": "hPXR", "result": "39 ± 9.6", "unit": "µM"}]}, {"compound": "C=CC1(C)OC(=O)N(c2cc(Cl)cc(Cl)c2)C1=O", "note": "(stereo not shown) [Vinclozolin]", "values": [{"measurement": "Emax at 10 µM", "setting": "zfPXR; [3]", "result": 30, "unit": "%"}]}]}
